{
  "source": "patent US20020040062A1",
  "about": "“Protein kinase C activators and their use in decreasing expression of cell antigens” (The Trustees of Columbia University, priority 1993, published 2002)",
  "format_in_all_cases": "cell-based, human",
  "key": {"[1]": {"test_system": "BCA 225", "assay": "BCA 225 shedding into culture medium, double-determinant ELISA", "settings": "T47D cells; for ability to induce shedding of BCA 225: Table 2", "method": "(§1) After appropriate incubation times with the various compounds cell lysates were prepared from T47D cells. Cells were washed 3× in PBS, pH 7.6, pelleted and incubated for 1 hr at room temperature in 20 mM Tris HCl, pH 7.4, with PMSF. Cultures were then homogenized with a Teflon homogenizer, centrifuged at 3000 RPM for 10 min at 4° C. and the supernatant was mixed 1:2 with 20 mM Tris-HCl, pH 7.4, containing 0.5% NP40 (Sigma). After 1 hr at 4° C., the mixture was spun at 3000 RPM for 10 min and the supernatant was passed through an EXTRACTIGEL column (Pierce, Ill.) to remove excess detergent. Protein concentration was determined by the BCA micro-method (Pierce, Ill.). BCA 225 levels in cell extracts and supernatants from control and treated T47D cells were quantitated using a double-determinant ELISA assay. Briefly, Cu18 monoclonal antibody coated Nunc Immunoplates (Nunc, Denmark) were blocked with 1% BSA (Sigma, RIA Reagent Grade) and incubated with a 1:2 dilution of supernatant in duplicate. Standard values for a partially purified BCA 225 preparation were used at a range of 0 to 10 μg/ml in RPMI 1640 plus 10% FBS (T47D growth medium). After 2 hr incubation and three washings with PBS 0.1% Tween 20 a Cu46 monoclonal antibody conjugated to peroxidase was applied to the plate, incubated for 2 hr, washed 6× in PBS 0.1% Tween 20 and the reaction was developed with […] OPD (Sigma, St. Louis) and 4 μl of 30% H2O2 in McIlvans buffer, pH […]. The plates were read on a Dynatech Elisa reader and a linear standard curve was generated and used to calculate the relative amount of BCA 225 in cell lysates and shed into the culture medium. Results were adjusted to ng BCA 225 per mg of protein, or per 1×10^6 cells. Replicate samples varied by ≦10% and replicate experiments varied by ≦20%."}, "[2]": {"test_system": "BCA 225", "assay": "FACS analysis of BCA 225 surface expression in T47D cells", "settings": "72 hr; for BCA 225 Expression, level of enhancement relative to control (equivalent to 1.0): presence or absence of 0.1 μg/ml H-7", "source_text": "(§2) IgG1 murine monoclonal antibody Cu18 and Cu46 recognize two different epitopes of a highly restricted breast carcinoma associated glycoprotein of Mr 225,000 to 250,000 (BCA 225). This TAA is expressed intracytoplasmically and on the membrane of 94% of breast tumors tested and in the T47D human breast carcinoma cell line. BCA 225 is shed into the culture medium by T47D cells and into the sera of breast cancer patients. IgG2a monoclonal antibody L243 (anti HLA Class II-DR) recognizes a monomorphic HLA Class II-DR-α epitope (ATCC M355). Monoclonal antibody CL203.4 [40], which recognizes ICAM-I, was kindly provided by Dr. S. Ferrone, New York Medical College, NY. The c-erbB-2 monoclonal antibody which recognizes the extracellular domain of c-erbB-2 was obtained from Triton Biosciences, Inc., Alamedia, Calif. Monoclonal antibodies Cu18 and Cu46 were used at 0.05 μg/ml and monoclonal antibodies interacting with HLA Class II-DR, ICAM-1 and c-erbB-2 were used at 10 μg/ml. For each experiment, isotype matched control backgrounds (IgG for Cu18, Cu46 and ICAM-1, IgG2a for HLA Class Ii and IgG2b for c-erbB-2) were subtracted from the experimental results. Background from antimouse IgG FITC antibody was also subtracted from experimental results. Applicants never observed backgrounds higher than 2% of total cells for isotypic mouse IgG or higher than 5% for antimouse IgG FITC.\n(§3) T47D cells treated with the various compounds were analyzed by flow cytometry using appropriate monoclonal antibody concentrations as described previously. Briefly, 1×10^5 cells were incubated with the test antibody for 30 min at 4° C., washed 3× with PBS and incubated with a goat a mouse F (ab)2 FITC conjugated test antibody at a 1:40 dilution for 30 min at 4° C. Cells were then washed 3× with PBS and analyzed on a FACStar (Beckon Dickinson, Mountain View, Calif.) or a Coulter Epics IV FACS (Coulter, Hialeah, Fla.). Results are expressed as mean fluorescence intensity (MFI) units which were determined as described previously. MFI=(mean channel fluorescence in fluorescence positive antibody-binding cells×% of fluorescence positive antibody-binding cells)−(mean channel fluorescence in unstained cells×% of fluorescence positive cells in the unstained population). All studies were performed a minimum of three or four times with duplicate samples in each experiment. Replicate samples within individual experiments varied by ≦10% and variation between experiments were generally ≦20%."}, "[3]": {"test_system": "BCA 225", "assay": "BCA 225 synthesis, double-determinant ELISA of T47D cell lysates", "settings": "T47D cells, 72 hr", "method": "as §1"}, "[4]": {"test_system": "HLA Class II antigens", "assay": "FACS analysis of HLA Class II antigen surface expression in T47D cells", "settings": "72 hr; for HLA Class II level of upregulation versus untreated control cells (equivalent to 1.0): presence or absence of 0.1 μg/ml H-7", "source_text": "as §2, with “μg/ml.” for “μg/ml. For each experiment, isotype matched control backgrounds (IgG for Cu18, Cu46 and ICAM-1, IgG2a for HLA Class Ii and IgG2b for c-erbB-2) were subtracted from the experimental results. Background from antimouse IgG FITC antibody was also subtracted from experimental results. Applicants never observed backgrounds higher than 2% of total cells for isotypic mouse IgG or higher than 5% for antimouse IgG FITC.”\nas §3, with “experiment.” for “experiment. Replicate samples within individual experiments varied by ≦10% and variation between experiments were generally ≦20%.”"}, "[5]": {"settings": "72 hr, 0.1 μg/ml TPA, 0.1 μg/ml MEZ or 0.25 μg/ml ADMB, presence or absence of 0.1 μg/ml H-7"}, "[6]": {"settings": "72 hr, 500 units/ml IFN-β or 50 units/ml IFN-γ, presence or absence of 1.0 μg/ml H-7"}, "[7]": {"settings": "0.1 μg/ml TPA, 0.1 μg/ml MEZ or 0.25 μg/ml ADMB"}, "[8]": {"settings": "0.1 μg/ml TPA, 0.1 μg/ml MEZ or 0.25 μg/ml ADMB, presence or absence of 0.1 μg/ml H-7, CU18 antibody"}, "[9]": {"settings": "500 units/ml IFN-β or 50 units/ml IFN-γ, presence or absence of 1.0 μg/ml H-7"}, "[10]": {"settings": "0.1 μg/ml TPA, 0.1 μg/ml MEZ or 0.25 μg/ml ADMB, presence or absence of 0.1 μg/ml H-7"}, "[11]": {"settings": "0.1 μg/ml TPA or MEZ, presence or absence of 0.1 μg/ml H-7, FACStar"}},
  "note": "Marks after values point to notes of the source that are not given here.",
  "data": [
    {"smiles": "CC1CNCCN1S(=O)(=O)c1cccc2cnccc12.Cl.Cl", "note": "(stereo not drawn) [H-7, 1-(5-isoquinolinesulfonyl)-2-methylpiperazine dihydrochloride]", "values": [
      {"measurement": "BCA 225 Shedding", "setting": "[1]; [5]", "result": 23, "unit": "ng/ml/10^6 cells"},
      {"measurement": "BCA 225 Shedding, level of enhancement relative to control (equivalent to 1.0)", "setting": "[1]; [5]", "result": 0.8},
      {"measurement": "BCA 225 Shedding", "setting": "[1]; [6]", "result": 38, "unit": "ng/ml/10^6 cells"},
      {"measurement": "BCA 225 Shedding, relative change in comparison with controls (equivalent to 1.0)", "setting": "[1]; [6]", "result": 0.8},
      {"measurement": "BCA 225 Expression, level of enhancement relative to control (equivalent to 1.0)", "setting": "[2]; [7]", "result": 0.8},
      {"measurement": "BCA 225 Expression", "setting": "[2]; [8]", "result": "5,428 MFI"},
      {"measurement": "BCA 225 Expression", "setting": "[2]; [9]", "result": "2,560 MFI"},
      {"measurement": "BCA 225 Expression, relative change in comparison with controls (equivalent to 1.0)", "setting": "[2]; [9]", "result": 0.9},
      {"measurement": "BCA 225 Synthesis", "setting": "[3]; [10]", "result": 142, "unit": "ng/mg protein"},
      {"measurement": "BCA 225 Synthesis, level of enhancement relative to control (equivalent to 1.0)", "setting": "[3]; [10]", "result": 0.9},
      {"measurement": "BCA 225 Synthesis", "setting": "[3]; [9]", "result": 230, "unit": "ng/mg protein"},
      {"measurement": "BCA 225 Synthesis, relative change in comparison with controls (equivalent to 1.0)", "setting": "[3]; [9]", "result": 1.0},
      {"measurement": "HLA Class II level of upregulation versus untreated control cells (equivalent to 1.0)", "setting": "[4]; 0.1 μg/ml TPA or MEZ", "result": "(1.3)^b"},
      {"measurement": "Antigenic Expression (MFI) HLA Class II", "setting": "[4]; [11]", "result": "4,563 MFI"},
      {"measurement": "HLA Class II relative increase in expression versus untreated controls (equivalent to 1.0)", "setting": "[4]; [9]", "result": 1.2},
      {"measurement": "Antigenic Expression (MFI) HLA Class II", "setting": "[4]; 500 units/ml IFN-β or 50 units/ml IFN-γ, presence or absence of 1.0 μg/ml H-7, Coulter Epics IV FACS", "result": "3,490 MFI"}
    ]},
    {"smiles": "CCCCCCCCCCN(C)c1cc(CO)cc(NC(C)=O)c1", "note": "[ADMB, 3-(N-acetylamino)-5-(N-decyl-N-methylamino)-benzyl alcohol]", "values": [
      {"measurement": "BCA 225 Shedding", "setting": "[1]; [5]", "result": 26, "unit": "ng/ml/10^6 cells"},
      {"measurement": "BCA 225 Shedding, level of enhancement relative to control (equivalent to 1.0)", "setting": "[1]; [5]", "result": 0.9},
      {"measurement": "ability to induce shedding of BCA 225", "setting": "[1]", "result": "did not induce this effect"},
      {"measurement": "BCA 225 Expression, level of enhancement relative to control (equivalent to 1.0)", "setting": "[2]; [7]", "result": 2.0},
      {"measurement": "BCA 225 Expression", "setting": "[2]; [8]", "result": "12,825 MFI"},
      {"measurement": "BCA 225 Synthesis", "setting": "[3]; [10]", "result": 299, "unit": "ng/mg protein"},
      {"measurement": "BCA 225 Synthesis, level of enhancement relative to control (equivalent to 1.0)", "setting": "[3]; [10]", "result": 1.8},
      {"measurement": "efficacy of upregulation of HLA Class II antigens (fold-change in MFI, FIG. 2)", "setting": "[4]; 0.1 μg/ml of ADMB, TPA or MEZ", "result": "somewhat more effective than TPA and MEZ"}
    ]},
    {"smiles": "CCCCCCCCCCCCCC(=O)O[C@@H]1[C@@H](C)[C@@]2(O)[C@@H](C=C(CO)C[C@]3(O)C(=O)C(C)=C[C@@H]23)[C@H]2C(C)(C)[C@]12OC(C)=O", "note": "[TPA, 12-0-tetradecanoyl-phorbol-13-acetate]", "values": [
      {"measurement": "BCA 225 Shedding", "setting": "[1]; [5]", "result": 84, "unit": "ng/ml/10^6 cells"},
      {"measurement": "BCA 225 Shedding, level of enhancement relative to control (equivalent to 1.0)", "setting": "[1]; [5]", "result": 3.0},
      {"measurement": "ability to induce shedding of BCA 225", "setting": "[1]", "result": "enhance shedding of BCA 225"},
      {"measurement": "BCA 225 Expression, level of enhancement relative to control (equivalent to 1.0)", "setting": "[2]; [7]", "result": 1.8},
      {"measurement": "BCA 225 Expression", "setting": "[2]; [8]", "result": "11,696 MFI"},
      {"measurement": "BCA 225 Synthesis", "setting": "[3]; [10]", "result": 394, "unit": "ng/mg protein"},
      {"measurement": "BCA 225 Synthesis, level of enhancement relative to control (equivalent to 1.0)", "setting": "[3]; [10]", "result": 2.4},
      {"measurement": "HLA Class II level of upregulation versus untreated control cells (equivalent to 1.0)", "setting": "[4]; 0.1 μg/ml TPA or MEZ", "result": "(2.9)"},
      {"measurement": "Antigenic Expression (MFI) HLA Class II", "setting": "[4]; [11]", "result": "9,984 MFI"}
    ]}
  ]
}
